Experimental data reported in patent US4705799A, “Aminomethyl oxooxazolidinyl benzenes useful as antibacterial agents” (E. I. Du Pont de Nemours and Company, priority 1985, dated 1987).
Converted amounts (≈) assume the structure as drawn.

Key:
Escherichia coli [1] = assay: In vivo efficacy of compounds administered subcutaneously in mouse intraperitoneal infections; conditions: sc, 168 h; mouse i.p. Escherichia coli infection; subcutaneous; dosed at infection and 4 h post-infection; 7 days; read-out: ED50 (50 percent effective dose)
Protocol: (§1) Determinations of in vivo efficacy are performed by inoculating mice intraperitoneally with cultures of the infecting organism diluted to produce 90-100% mortality in control animals within twenty-four hours. The diluents used were trypticase soy broth for E. coli and 5% aqueous hog gastric mucin for Staphylococcus aureus infections. The compounds are dissolved or suspended in 0.25% aqueous Methocel® (Methocel®: Hydroxypropyl Methylcellulose E15 Premium, Dow Chemical Company) for oral administration or sterile distilled water containing 5% dimethylsulfoxide (Fisher Scientific Company, Fairlawn, N.J.) for subcutaneous administration. The mice are dosed at the time of infection and again at four hours post-infection. Mortality is recorded daily until test termination seven days post infection and the 50 percent effective dose, ED50, is calculated by the Reed-Muench method (Reed, L. G. and Muench, H., "A simple method of estimating fifty percent end points," American Journal of Hygiene, 27, 493-497 (1938).

Escherichia coli [2] = assay: In vitro broth dilution minimal inhibitory concentration (standard microdilution method); assay type: cell-based; conditions: Escherichia coli; Mueller-Hinton broth; 24-hour; read-out: Microdilution Broth MIC
[3] = test system: Staphylococcus epidermidis; assay: as above; assay type: cell-based; conditions: 24 h, Mueller-Hinton broth, 24-hour, read-out: Microdilution Broth MIC
Staphylococcus aureus [4] = assay: In vivo efficacy of orally administered compounds in mouse intraperitoneal infections; conditions: Staphylococcus aureus, po, 168 h, mouse i.p. Staphylococcus aureus infection; oral; dosed at infection and 4 h post-infection; 7 days; read-out: ED50 (50 percent effective dose)
Protocol: as §1

Escherichia coli [5] = assay: as above; conditions: 168 h; mouse i.p. Escherichia coli infection; oral; dosed at infection and 4 h post-infection; 7 days; read-out: ED50 (50 percent effective dose)
Protocol: as §1

Staphylococcus aureus [6] = assay: In vivo efficacy of compounds administered subcutaneously in mouse intraperitoneal infections; conditions: sc, 168 h; mouse i.p. Staphylococcus aureus infection; subcutaneous; dosed at infection and 4 h post-infection; 7 days; read-out: ED50 (50 percent effective dose)
Protocol: as §1

Compound | MIC (Escherichia coli [2]) | MIC [3] | ED50 (Escherichia coli [1]) | ED50 (Staphylococcus aureus [4]) | ED50 (Escherichia coli [5]) | ED50 (Staphylococcus aureus [6])
CS(=O)(=O)c1ccc(N2CC(CNC(=O)C(Cl)Cl)OC2=O)cc1 (single isomer, unassigned) [Example 22, (l)-2,2-Dichloro-N-[3-[4-(methylsulfonyl)phenyl]-2-oxooxazolidin-5-ylmethyl]acetamide] | 9.4 µg/mL (≈ 24.7 µM) | 2.4 µg/mL (≈ 6.3 µM) | 11.8 mg/kg | 14.2 mg/kg | 71.1 mg/kg | 
CS(=O)(=O)NCC1CN(c2ccc(S(C)(=O)=O)cc2)C(=O)O1 (single isomer, unassigned) [Example 25, (l)-N-[3-[4-(Methylsulfonyl)phenyl]-2-oxooxazolidin-5-ylmethyl]methanesulfonamide] | > 100 µg/mL | 100 µg/mL (≈ 287 µM) | > 100 mg/kg | > 360 mg/kg |  | 83.6 mg/kg
COC(=O)NCC1CN(c2ccc(SC)cc2)C(=O)O1 (single isomer, unassigned) [Example 32, (l)-N-[3-[4-(methylthio)phenyl]-2-oxooxazolidin-5-ylmethyl]carbamic acid, methyl ester] | > 200 µg/mL | 12.5 µg/mL (≈ 42.2 µM) |  | 3.5 mg/kg | 70.9 mg/kg | < 4.4 mg/kg
CC(=O)NCC1CN(c2ccc(I)cc2)C(=O)O1 (single isomer, unassigned) [Example 145, (l)-N-[3-(4-Iodophenyl)-2-oxo-5-oxazolidinylmethyl]acetamide] | > 200 µg/mL | 12.5 µg/mL (≈ 34.7 µM) | > 120 mg/kg | 50 mg/kg |  | 12.2 mg/kg
CC(=O)NCC1CN(c2ccccc2[N+](=O)[O-])C(=O)O1 (single isomer, unassigned) [Example 148, (l)-N-[3-(2-Nitrophenyl)-2-oxooxazolidin-5-ylmethyl]acetamide] | > 200 µg/mL | 200 µg/mL (≈ 716 µM) |  | 21 mg/kg | > 120 mg/kg | 21.5 mg/kg
CC(=O)NCC1CN(c2ccc(N)cc2)C(=O)O1 (single isomer, unassigned) [Example 149, (l)-N-[3-(4-Aminophenyl)-2-oxooxazolidin-5-ylmethyl]acetamide] | > 200 µg/mL | 100 µg/mL (≈ 401 µM) |  | 20.2 mg/kg | > 120 mg/kg | 10.3 mg/kg
COC(=O)NCC1CN(c2ccc(SC(C)=O)cc2)C(=O)O1 (single isomer, unassigned) [Example 155] | > 200 µg/mL | > 200 µg/mL |  | 3 mg/kg | 82.2 mg/kg | < 4.4 mg/kg
COC(=O)NCC1CN(c2ccc(S)cc2)C(=O)O1 (single isomer, unassigned) [Example 156, (l)-[3-(4-Mercaptophenyl)-2-oxooxazolidin-5-ylmethyl]carbamic acid, methyl ester] | > 200 µg/mL | > 200 µg/mL |  | 4.5 mg/kg | > 120 mg/kg | < 4.4 mg/kg
CC(=O)NCC1CN(c2ccc(C(C)=NO)cc2)C(=O)O1 (single isomer, unassigned) [Example 159, (l)-N-[3-(4-Acetylphenyl)-2-oxooxazolidin-5-ylmethyl]acetamide Oxime] | > 128 µg/mL | 4 µg/mL (≈ 13.7 µM) | 71.9 mg/kg | 2.6 mg/kg |  | 1.1 mg/kg
CSCc1ccc(N2CC(CNC(C)=O)OC2=O)cc1 (single isomer, unassigned) [Example 163, (l)-N-[3-[4-(Methylthiomethyl)phenyl]-2-oxo-5-oxazolidinylmethyl]acetamide] | > 128 µg/mL | 2 µg/mL (≈ 6.79 µM) | 33.3 mg/kg | 5.4 mg/kg |  | 3.2 mg/kg
CC(=O)NCC1CN(c2ccc(C[S+](C)[O-])cc2)C(=O)O1 (single isomer, unassigned) [Example 164, (l)-N-[3-[4-(Methylsulfinylmethyl)phenyl]-2-oxo-5-oxazolidinylmethyl]acetamide] | > 128 µg/mL | 16 µg/mL (≈ 51.6 µM) | > 120 mg/kg | 14 mg/kg |  | 9.4 mg/kg
CCC(=O)NCC1CN(c2ccc(C(C)=O)cc2)C(=O)O1 (single isomer, unassigned) [Example 171, (l)-N-[3-(4-Acetylphenyl)-2-oxo-5-oxazolidinylmethyl]propanamide] | > 128 µg/mL | 4 µg/mL (≈ 13.8 µM) | 21.6 mg/kg | 3.3 mg/kg |  | 1.6 mg/kg
C#Cc1ccc(N2CC(CNC(C)=O)OC2=O)cc1 (single isomer, unassigned) [Example 182, (l)-N-[3-(4-Ethynylphenyl)-2-oxo-5-oxazolidinylmethyl]acetamide] | > 128 µg/mL | 16 µg/mL (≈ 61.9 µM) | > 120 mg/kg | 16 mg/kg |  | 7 mg/kg
CCOC(=O)NCC1CN(c2ccc(SC)cc2)C(=O)O1 (centres unmarked) [Example 33] | > 200 µg/mL | 50 µg/mL (≈ 161 µM) |  | 12.2 mg/kg | > 120 mg/kg | 8.6 mg/kg
CC(=O)c1ccc(N2CC(CNC=O)OC2=O)cc1 (centres unmarked) [Example 173] | > 128 µg/mL | 4 µg/mL (≈ 15.3 µM) | 79 mg/kg | 6.9 mg/kg |  | 4.5 mg/kg
CC(=O)c1ccc(N2CC(CNC(=O)CN=[N+]=[N-])OC2=O)cc1 (centres unmarked) [Example 175] | 128 µg/mL (≈ 403 µM) | 4 µg/mL (≈ 12.6 µM) | 73.5 mg/kg | 6.6 mg/kg |  | 8.2 mg/kg
CC(=O)c1ccc(N2CC(CNC(N)=O)OC2=O)cc1 (centres unmarked) [Example 177] | > 128 µg/mL | 4 µg/mL (≈ 14.4 µM) | 34 mg/kg | 3.7 mg/kg |  | 2.8 mg/kg

Now from value to compound, other results behind:

MIC (Escherichia coli [2]) | MIC [3] | Compound | ED50 (Escherichia coli [1]) | ED50 (Staphylococcus aureus [4]) | ED50 (Escherichia coli [5]) | ED50 (Staphylococcus aureus [6])
> 200 µg/mL | > 200 µg/mL | CC(=O)NCC1CN(c2ccc(SC(C)=O)cc2)C(=O)O1 (single isomer, unassigned) [Example 152, (l)-N-[3-[4-(Acetylthio)phenyl]-2-oxooxazolidin-5-ylmethyl]acetamide] |  | 4.4 mg/kg | 24.8 mg/kg | < 2.5 mg/kg
> 200 µg/mL | 12.5 µg/mL | CC(=O)NCC1CN(c2ccc(C(=O)C[S+](C)[O-])cc2)C(=O)O1 (single isomer, unassigned) [Example 165, (l)-N-[3-[4-(Methylsulfinyl)acetylphenyl]-2-oxo-5-oxazolidinylmethyl]acetamide dihydrate] | > 120 mg/kg | 16.4 mg/kg |  | 8.4 mg/kg
> 200 µg/mL | 200 µg/mL (≈ 564 µM) | CC(C)(C)C(=O)NCC1CN(c2ccc(S(C)(=O)=O)cc2)C(=O)O1 (centres unmarked) [Example 30] | > 120 mg/kg | > 120 mg/kg |  | 57.4 mg/kg
> 200 µg/mL | 12.5 µg/mL (≈ 41.4 µM) | CC(=O)NCC1CN(c2ccc(C(F)(F)F)cc2)C(=O)O1 (centres unmarked) [Example 41] |  | 5.3 mg/kg | > 120 mg/kg | 6.1 mg/kg
> 128 µg/mL | > 128 µg/mL | COC(=O)NCC1CN(c2ccc(Cl)cc2)C(=O)O1 (centres unmarked) [Example 84] |  | 79.2 mg/kg | > 120 mg/kg | 80.5 mg/kg
> 200 µg/mL | 3.1 µg/mL (≈ 11.3 µM) | C=C(C)c1ccc(N2CC(CNC(C)=O)OC2=O)cc1 (centres unmarked) [Example 97] | > 120 mg/kg | 4.9 mg/kg |  | 9.5 mg/kg
32 µg/mL (≈ 103 µM) | 1 µg/mL (≈ 3.22 µM) | CC(=O)c1ccc(N2CC(CNC(=O)CCl)OC2=O)cc1 (centres unmarked) [Example 174] | > 120 mg/kg | 8.1 mg/kg |  | 12.2 mg/kg
128 µg/mL (≈ 438 µM) | 4 µg/mL (≈ 13.7 µM) | COC(=O)NCC1CN(c2ccc(C(C)=O)cc2)C(=O)O1 (centres unmarked) [Example 179] | 83.1 mg/kg | 2 mg/kg |  | 1.7 mg/kg
